Common to all, as to assay: Antifungal susceptibility study (1), broth microdilution MIC
Common to all, as to type: cell-based
A general note: In broth dilution the organism is exposed to a series of concentrations in liquid medium.

Assay [1] has as its system Cryptococcus humicolus ATCC 9949. The conditions noted are these: lowest concentration preventing any visible growth, read at 48 hours, 25° C., RPMI 1640 pH 7.0. As to the method:
(§1) ACROS ORGANICS, New Jersey, USA), pH 7.0, was used in study. […] Then these DMSO solutions were diluted 50-fold (first 10-fold and then 5-fold) in the test medium. […] The solutions were prepared just before using. The organisms used for susceptibility testing were: Candida albicans ATCC 14053, Cryptococcus humicolus ATCC 9949, Aspergillus niger ATCC 16404 and Fusarium oxysporum VKM F-140 (=CMI, IMI 90473). Organisms were stored on potato dextrose agar […] 50% glycerol solution at -70° C. For short-term storage, stock cultures were stored on agar […] 4° C. The cultures of yeasts were sub-cultured onto Sabouraud dextrose (SAB) agar and incubated for 24 hours at 35° C. (Candida albicans) or for 48 hours at 25° C. (Cryptococcus humicolus) to obtain a freshly grown pure culture. The cultures of moulds were sub-cultured onto potato dextrose agar and incubated for 7 days at 35° C. […] (Fusarium oxysporum) to ensure maximum sporulation. […] Inoculum quantitation was performed by plating dilution of the inoculum on Sabouraud dextrose agar to determine the viable number of CFU per milliliter. Sterile 96-well flat-bottomed microtitration plates were used for testing. 100 μl of diluted inocula were dispensed into each microdilution well containing 100 μl of the double dilutions of compounds. Drug-free and yeast/mould-free controls were included. Microdilution trays were incubated at 35° C. (Candida albicans and moulds) or 25° C. (Cryptococcus humicolus) without agitation and observed for the presence or absence of visible growth. […] Minimal inhibitory concentrations (MICs) were read at 48 hours.

The subject of assay [2] is Candida albicans ATCC 14053. The following applies: lowest concentration preventing any visible growth, read at 48 hours, 35° C., RPMI 1640 pH 7.0. As for the experimental part:
as §1

Assay [3] deals with Fusarium oxysporum VKM F-140. The conditions noted are these: lowest concentration preventing any visible growth, read at 48 hours, 35° C., RPMI 1640 pH 7.0. As to the method:
(§2) ACROS ORGANICS, New Jersey, USA), pH 7.0, was used in study. […] Then these DMSO solutions were diluted 50-fold (first 10-fold and then 5-fold) in the test medium. […] The solutions were prepared just before using. The organisms used for susceptibility testing were: Candida albicans ATCC 14053, Cryptococcus humicolus ATCC 9949, Aspergillus niger ATCC 16404 and Fusarium oxysporum VKM F-140 (=CMI, IMI 90473). Organisms were stored on potato dextrose agar […] 50% glycerol solution at -70° C. For short-term storage, stock cultures were stored on agar […] 4° C. The cultures of yeasts were sub-cultured onto Sabouraud dextrose (SAB) agar and incubated for 24 hours at 35° C. (Candida albicans) or for 48 hours at 25° C. (Cryptococcus humicolus) to obtain a freshly grown pure culture. The cultures of moulds were sub-cultured onto potato dextrose agar and incubated for 7 days at 35° C. […] (Fusarium oxysporum) to ensure maximum sporulation. […] Finally, the suspensions were vortexed for 15 s to break up clumps of cells and then filtered through four layers of sterile gauze. The densities of conidial spore suspensions was measured at 530 nm and adjusted to 0.09-0.11 for Aspergillus niger and 0.15-0.17 for Fusarium oxysporum. These suspensions were diluted 1:50 with the standard medium. […] Inoculum quantitation was performed by plating dilution of the inoculum on Sabouraud dextrose agar to determine the viable number of CFU per milliliter. Sterile 96-well flat-bottomed microtitration plates were used for testing. 100 μl of diluted inocula were dispensed into each microdilution well containing 100 μl of the double dilutions of compounds. Drug-free and yeast/mould-free controls were included. Microdilution trays were incubated at 35° C. (Candida albicans and moulds) or 25° C. (Cryptococcus humicolus) without agitation and observed for the presence or absence of visible growth. […] Minimal inhibitory concentrations (MICs) were read at 48 hours.

The test system of assay [4] is Aspergillus niger ATCC 16404. The following applies: lowest concentration preventing any visible growth, read at 48 hours, 35° C., RPMI 1640 pH 7.0. As to the method: as §2

The text below walks through data of patent US8415312B2, “Compound which is a nystatin derivative” (Biosergen AS, priority 2007, dated 2013).

≈ marks a conversion by molar mass, not a printed value.

Take `CC1O[C@@H](O[C@H]2/C=C/C=C/C=C/C=C/C=C/C=C/C=C/[C@H](C)[C@@H](O)[C@@H](C)[C@H](C)OC(=O)C[C@H](O)C[C@H](O)C[C@H](O)CC[C@@H](O)[C@H](O)C[C@]3(O)C[C@H](O)[C@@H](C(=O)NCCN(C)C)[C@H](C2)O3)[C@H](O)C(NCC2(O)OC[C@@H](O)[C@H](O)[C@@H]2O)[C@@H]1O` (some centres unmarked) [Compound 42, N-tagatopyronosyl S44HP DMAE amide]: the “MIC Cryptococcus humicolus ATCC 9949” value in assay [1] turned out to be 1 µg/mL (≈ 0.865 µM). Further, the “MIC Candida albicans ATCC 14053” value in assay [2] was found to be 0.5 µg/mL (≈ 0.432 µM). In assay [3], the “MIC Fusarium oxysporum VKM F-140” value came out at 2 µg/mL (≈ 1.73 µM). Besides, in assay [4], the “MIC Aspergillus niger ATCC 16404” value worked out at 1 µg/mL (≈ 0.865 µM).
Turning to `CC1O[C@@H](O[C@H]2/C=C/C=C/C=C/C=C/C=C/C=C/C=C/[C@H](C)[C@@H](O)[C@@H](C)[C@H](C)OC(=O)C[C@H](O)C[C@H](O)C[C@H](O)CC[C@@H](O)[C@H](O)C[C@]3(O)C[C@H](O)[C@@H](C(=O)NCCN(C)C)[C@H](C2)O3)[C@H](O)C(NCc2ccc(N(C)C)cc2)[C@@H]1O` (some centres unmarked) [Compound 43], in assay [1], the “MIC Cryptococcus humicolus ATCC 9949” value was 1 µg/mL (≈ 0.887 µM). Besides, the “MIC Candida albicans ATCC 14053” value in assay [2] was 1 µg/mL (≈ 0.887 µM). The “MIC Fusarium oxysporum VKM F-140” value in assay [3] came out at 4 µg/mL (≈ 3.55 µM). Besides, in assay [4], the “MIC Aspergillus niger ATCC 16404” value turned out to be 1 µg/mL (≈ 0.887 µM).
Take `CC1O[C@@H](O[C@H]2/C=C/C=C/C=C/C=C/C=C/C=C/C=C/[C@H](C)[C@@H](O)[C@@H](C)[C@H](C)OC(=O)C[C@H](O)C[C@H](O)C[C@H](O)CC[C@@H](O)[C@H](O)C[C@]3(O)C[C@H](O)[C@@H](C(=O)NCCN(C)C)[C@H](C2)O3)[C@H](O)C(NC(=O)[C@@H](N)CCCCN)[C@@H]1O.Cl` (some centres unmarked) [Compound 44]: the “MIC Cryptococcus humicolus ATCC 9949” value in assay [1] came out at 2 µg/mL. Also, the “MIC Candida albicans ATCC 14053” value in assay [2] is 1 µg/mL. In addition, in assay [3], the “MIC Fusarium oxysporum VKM F-140” value was 4 µg/mL. Besides, in assay [4], the “MIC Aspergillus niger ATCC 16404” value worked out at 2 µg/mL.
As to `CC1O[C@@H](O[C@H]2/C=C/C=C/C=C/C=C/C=C/C=C/C=C/[C@H](C)[C@@H](O)[C@@H](C)[C@H](C)OC(=O)C[C@H](O)C[C@H](O)C[C@H](O)CC[C@@H](O)[C@H](O)C[C@]3(O)C[C@H](O)[C@@H](C(=O)NCCN(C)C)[C@H](C2)O3)[C@H](O)C(NC(=O)CN(C)C)[C@@H]1O` (some centres unmarked) [Compound 45], in assay [1], the “MIC Cryptococcus humicolus ATCC 9949” value worked out at 2 µg/mL (≈ 1.85 µM). Further, the “MIC Candida albicans ATCC 14053” value in assay [2] is 1 µg/mL (≈ 0.926 µM). In assay [3], the “MIC Fusarium oxysporum VKM F-140” value turned out to be 4 µg/mL (≈ 3.71 µM). For the same compound, the “MIC Aspergillus niger ATCC 16404” value in assay [4] is 1 µg/mL (≈ 0.926 µM).
With `CC1O[C@@H](O[C@H]2/C=C/C=C/C=C/C=C/C=C/C=C/C=C/[C@H](C)[C@@H](O)[C@@H](C)[C@H](C)OC(=O)C[C@H](O)C[C@H](O)C[C@H](O)CC[C@@H](O)[C@H](O)C[C@]3(O)C[C@H](O)[C@@H](C(=O)NCCN(C)C)[C@H](C2)O3)[C@H](O)C(NC(=O)c2ccc(CN)cc2)[C@@H]1O` (some centres unmarked) [Compound 46], in assay [1], the “MIC Cryptococcus humicolus ATCC 9949” value is 2 µg/mL (≈ 1.77 µM). In addition, the “MIC Candida albicans ATCC 14053” value in assay [2] was determined as 2 µg/mL (≈ 1.77 µM). The “MIC Fusarium oxysporum VKM F-140” value in assay [3] is 4 µg/mL (≈ 3.55 µM). The “MIC Aspergillus niger ATCC 16404” value in assay [4] amounted to 2 µg/mL (≈ 1.77 µM).
Consider `CC1O[C@@H](O[C@H]2/C=C/C=C/C=C/C=C/C=C/C=C/C=C/[C@H](C)[C@@H](O)[C@@H](C)[C@H](C)OC(=O)C[C@H](O)C[C@H](O)C[C@H](O)CC[C@@H](O)[C@H](O)C[C@]3(O)C[C@H](O)[C@@H](C(=O)O)[C@H](C2)O3)[C@H](O)C(NC(=O)c2ccc(CN)cc2)[C@@H]1O` (some centres unmarked) [Compound 47, N-(4-Aminomethylbenzoyl) S44HP], for which the “MIC Cryptococcus humicolus ATCC 9949” value in assay [1] amounted to 2 µg/mL (≈ 1.89 µM). In addition, the “MIC Candida albicans ATCC 14053” value in assay [2] was 2 µg/mL (≈ 1.89 µM). Further, in assay [3], the “MIC Fusarium oxysporum VKM F-140” value stood at 16 µg/mL (≈ 15.1 µM). Further, the “MIC Aspergillus niger ATCC 16404” value in assay [4] stood at 4 µg/mL (≈ 3.78 µM).
As to `CC1O[C@@H](O[C@H]2/C=C/C=C/C=C/C=C/C=C/C=C/C=C/[C@H](C)[C@@H](O)[C@@H](C)[C@H](C)OC(=O)C[C@H](O)C[C@H](O)C[C@H](O)CC[C@@H](O)[C@H](O)C[C@]3(O)C[C@H](O)[C@@H](C)[C@H](C2)O3)[C@H](O)C(NCc2ccc(N(C)C)cc2)[C@@H]1O` (some centres unmarked) [Compound 50, N-(4-N,N-Di-methylaminobenzyl) Compound 1], the “MIC Cryptococcus humicolus ATCC 9949” value in assay [1] turned out to be 2 µg/mL (≈ 1.95 µM). In addition, the “MIC Candida albicans ATCC 14053” value in assay [2] was determined as 2 µg/mL (≈ 1.95 µM). Also, the “MIC Fusarium oxysporum VKM F-140” value in assay [3] came out at 8 µg/mL (≈ 7.79 µM). For the same compound, in assay [4], the “MIC Aspergillus niger ATCC 16404” value worked out at 2 µg/mL (≈ 1.95 µM).
`CC1O[C@@H](O[C@H]2/C=C/C=C/C=C/C=C/C=C/C=C/C=C/[C@H](C)[C@@H](O)[C@@H](C)[C@H](C)OC(=O)C[C@H](O)C[C@H](O)C[C@H](O)CC[C@@H](O)[C@H](O)C[C@]3(O)C[C@H](O)[C@@H](C)[C@H](C2)O3)[C@H](O)C(N)[C@@H]1O.Cl` (some centres unmarked) [Compound 53, Compound 1 Hydrochloride]: the “MIC Cryptococcus humicolus ATCC 9949” value in assay [1] was determined as 2 µg/mL. The “MIC Candida albicans ATCC 14053” value in assay [2] turned out to be 2 µg/mL. For the same compound, in assay [3], the “MIC Fusarium oxysporum VKM F-140” value was found to be 4 µg/mL. Besides, the “MIC Aspergillus niger ATCC 16404” value in assay [4] was found to be 4 µg/mL.
Turning to `CC1O[C@@H](O[C@H]2/C=C/C=C/C=C/C=C/C=C/C=C/C=C/[C@H](C)[C@@H](O)[C@@H](C)[C@H](C)OC(=O)C[C@H](O)C[C@H](O)C[C@H](O)CC[C@@H](O)[C@H](O)C[C@]3(O)C[C@H](O)[C@@H](C)[C@H](C2)O3)[C@H](O)C(N)[C@@H]1O.N[C@H](CCC(=O)O)C(=O)O` (some centres unmarked) [Compound 54], the “MIC Cryptococcus humicolus ATCC 9949” value in assay [1] was 2 µg/mL. For the same compound, the “MIC Candida albicans ATCC 14053” value in assay [2] was determined as 2 µg/mL. In assay [3], the “MIC Fusarium oxysporum VKM F-140” value turned out to be 2 µg/mL. Moreover, in assay [4], the “MIC Aspergillus niger ATCC 16404” value is 2 µg/mL.
For `CC1O[C@@H](O[C@H]2/C=C/C=C/C=C/C=C/C=C/C=C/C=C/[C@H](C)[C@@H](O)[C@@H](C)[C@H](C)OC(=O)C[C@H](O)C[C@H](O)C[C@H](O)CC[C@@H](O)[C@H](O)C[C@]3(O)C[C@H](O)[C@@H](C)[C@H](C2)O3)[C@H](O)C(N)[C@@H]1O.N[C@@H](CC(=O)O)C(=O)O` (some centres unmarked) [Compound 55], the “MIC Cryptococcus humicolus ATCC 9949” value in assay [1] came to 2 µg/mL. The “MIC Candida albicans ATCC 14053” value in assay [2] is 2 µg/mL. Also, the “MIC Fusarium oxysporum VKM F-140” value in assay [3] is 2 µg/mL. In assay [4], the “MIC Aspergillus niger ATCC 16404” value stood at 2 µg/mL.
Consider `CC1O[C@@H](O[C@H]2/C=C/C=C/C=C/C=C/C=C/C=C/C=C/[C@H](C)[C@@H](O)[C@@H](C)[C@H](C)OC(=O)C[C@H](O)C[C@H](O)C[C@H](O)CC[C@@H](O)[C@H](O)C[C@]3(O)C[C@H](O)[C@@H](C)[C@H](C2)O3)[C@H](O)C(N)[C@@H]1O.O=C(O)C(Cl)Cl` (some centres unmarked) [Compound 57], for which, in assay [1], the “MIC Cryptococcus humicolus ATCC 9949” value is 2 µg/mL. Also, the “MIC Candida albicans ATCC 14053” value in assay [2] was 2 µg/mL. Also, in assay [3], the “MIC Fusarium oxysporum VKM F-140” value stood at 2 µg/mL. For the same compound, in assay [4], the “MIC Aspergillus niger ATCC 16404” value was found to be 2 µg/mL.
